Test results as given in patent US8629167B2, “Selective androgen receptor modulators” (Radius Health, Inc., priority 2008, dated 2014).
Where two headings read alike, the source gives them in different places.

What was measured:
androgen receptor = androgen receptor (Rattus norvegicus (Rat), UniProt P15207); experiment: androgen receptor binding assay (fluorescence polarization, AR-Fluormone complex)
Protocol: The assay was performed as specified by the manufacturer (Invitrogen, Madison, Wis.). Briefly, 1 μl of 10 mM compound was added to 500 μl of AR screening buffer in a 1.5 ml eppendorf tube to make a 2×10^−5 M stock. 10-fold serial dilutions of the test compounds were prepared ranging in concentration from 10^−5M to 10^−12 M. Each dilution was added in triplicate to a black 384-microtiter plate. The test compounds will be diluted 2-fold in the final reaction. 2×AR-Fluormone™ complex was prepared with 2 nM Flourmone AL Green™ and 30 nM AR. 25 μl of 2× complex was aliquoted to each reaction well, such that the final reaction volume was 50 μl per well. Plate was sealed with a foil cover and incubated in the dark at room temperature for 4 h. Polarization values for each well were measured. The polarization values were plotted against the concentration of the test compound. […] As a control, a competition curve for R1881 (methyltrienolone) was performed for each assay. Curve Fitting was performed using GraphPad Prism® software from GraphPad™ Software Inc. Binding data are reported as a single determination if the experiment was run once only and as the average of experiments if the binding experiment was performed two or more times with that compound.
Were multiple data points have been taken, the value reported is the average of the multiple determinations.

[1] = tested on: young, orchidectomized rats; experiment: Rat Herschberger assay (in vivo androgen and anabolic activity); settings: organ weight, 10 mg/kg (po), treated for 4 days
Source text: The following is a typical procedure of the in vivo evaluation of the selective androgens of this invention. In particular, this assay looks primarily at the ability of the selective androgens of this invention to increase muscle size in an immature, castrated rat. In addition, androgenic effects are looked at primarily by weighing the prostate and seminal vesicles. Selective compounds will show a greater increase in the levator ani relative to the prostate and seminal vesicles when compared to testosterone treated, castrated animals or to intact animals that have not been treated. Immature Sprague Dawley male rats were obtained Charles River Laboratories (Stoneridge, N.Y.). All animals were maintained in a temperature and humidity controlled room with a 12 hr light: 12 hr dark cycle, with ad lib access to food (TD 291615, Teklad, Madison, Wis.) and water. Rats were anesthetized and orchidectomized (GDX) or sham surgery (SHAM) was performed. After a 7-day recovery period, the animals were randomized according to weight and assigned to treatment groups (n=5), SHAM, OVX+vehicle, OVX+Cpd treated. Testosterone propionate (TP 1 mg/kg in 5% DMSO/95% corn oil) was administered by once daily subcutaneous injections, while the compounds of the invention are dosed in vehicle (typically 20% cyclodextrin or 0.5% carboxymethylcellulose) was administered by once daily oral gavage. The rats were then dosed once daily for 4 days. All animals were euthanized via carbon dioxide inhalation 24 hs after the last dose. The prostate, seminal vesicle and levator ani and bulba cavernous (LABC) tissues were removed, weighed and recorded. Body weights were recorded for each animal at baseline and at sacrifice.
Prostate, seminal vesicle and levator ani bulbus cavernosus (LABC) are all represented as % relative to sham. After sacrifice, organ weights of young, orchidectomized rats treated with compound for 4 days are compared to sham operated animals.

[2] = single determination or average of multiple determinations, read-out: Binding IC50 (nM), Compound AR-Binding Affinity

Sequence of androgen receptor (P15207 whole entry, looked up): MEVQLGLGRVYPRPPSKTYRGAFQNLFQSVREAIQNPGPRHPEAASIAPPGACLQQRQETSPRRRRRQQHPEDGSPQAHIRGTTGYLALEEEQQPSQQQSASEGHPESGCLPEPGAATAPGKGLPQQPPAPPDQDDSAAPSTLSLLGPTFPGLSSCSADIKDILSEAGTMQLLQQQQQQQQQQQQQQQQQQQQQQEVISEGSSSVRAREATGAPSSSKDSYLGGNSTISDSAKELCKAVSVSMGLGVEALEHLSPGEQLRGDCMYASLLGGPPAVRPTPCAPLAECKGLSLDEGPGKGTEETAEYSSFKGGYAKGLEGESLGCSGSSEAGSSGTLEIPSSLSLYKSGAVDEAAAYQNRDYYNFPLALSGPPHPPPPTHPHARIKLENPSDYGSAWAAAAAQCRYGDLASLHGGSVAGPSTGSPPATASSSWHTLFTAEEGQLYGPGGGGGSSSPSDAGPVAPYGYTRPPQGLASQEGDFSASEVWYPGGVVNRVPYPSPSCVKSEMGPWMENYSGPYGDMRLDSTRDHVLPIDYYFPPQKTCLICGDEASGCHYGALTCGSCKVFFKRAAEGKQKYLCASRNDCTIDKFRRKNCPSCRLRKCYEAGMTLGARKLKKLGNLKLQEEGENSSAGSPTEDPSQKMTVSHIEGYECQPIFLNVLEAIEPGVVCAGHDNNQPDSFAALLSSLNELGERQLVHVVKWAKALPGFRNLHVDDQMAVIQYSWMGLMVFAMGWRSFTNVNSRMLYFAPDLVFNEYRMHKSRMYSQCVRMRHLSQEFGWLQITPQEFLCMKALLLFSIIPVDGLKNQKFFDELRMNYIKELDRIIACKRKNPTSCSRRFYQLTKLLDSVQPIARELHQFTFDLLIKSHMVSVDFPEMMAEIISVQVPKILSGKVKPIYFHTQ

Structure (SMILES): CCCC(=O)O[C@@H](C)[C@@H](Nc1ccc(C#N)c(Cl)c1C)c1nnc(-c2ccc(C#N)cc2)o1 [Example 85, (1R,2S)-1-(3-Chloro-4-cyano-2-methylphenylamino)-1-(5-(4-cyanophenyl)-1,3,4-oxadiazol-2-yl)propan-2-yl butyrate]
- IC50 (androgen receptor): 10 nM

Structure (SMILES): CC(=O)O[C@@H](C)[C@@H](Nc1ccc(C#N)c(Cl)c1C)c1nnc(-c2ccccc2)o1 [Example 76, (1R,2S)-1-(3-chloro-4-cyano-2-methylphenylamino)-1-(5-phenyl-1,3,4-oxadiazol-2-yl)propan-2-yl acetate]
- IC50 (androgen receptor): 15 nM

Structure (SMILES): Cc1c(N[C@@H](c2nnc(-c3ccc4[nH]ccc4c3)o2)[C@H](C)O)ccc(C#N)c1Cl [Example 98, 4-((1R,2S)-1-(5-(1H-Indol-5-yl)-1,3,4-oxadiazol-2-yl)-2-hydroxypropylamino)-2-chloro-3-methylbenzonitrile]
- IC50 (androgen receptor): 80 nM

Structure (SMILES): Cc1c(N[C@@H](c2nnc(-c3ccccc3)o2)[C@H](C)OS(N)(=O)=O)ccc(C#N)c1Cl [Example 90, (1R,2S)-1-(3-Chloro-4-cyano-2-methylphenylamino)-1-(5-phenyl-1,3,4-oxadiazol-2-yl)propan-2-yl sulfamate]
- IC50 (androgen receptor): 20 nM

Structure (SMILES): Cc1c(N[C@@H](c2nnc(-c3ccccc3)o2)[C@@H](C)O)ccc(C#N)c1Cl [Example 3, 2-chloro-4-((1R,2R)-2-hydroxy-1-(5-phenyl-1,3,4-oxadiazol-2-yl)propylamino)-3-methylbenzonitrile]
- LABC (levator ani bulbus cavernosus), % relative to sham [1]: 99%
- Prostate, % relative to sham [1]: 43%
- Seminal vesicle, % relative to sham [1]: 37%

Structure (SMILES): Cc1c(N[C@@H](c2nnc(-c3ccc(OS(N)(=O)=O)cc3)o2)[C@H](C)O)ccc(C#N)c1Cl [Example 93, 4-(5-((1R,2S)-1-(3-Chloro-4-cyano-2-methylphenylamino)-2-hydroxypropyl)-1,3,4-oxadiazol-2-yl)phenyl sulfamate]
- IC50 (androgen receptor): 25 nM

Structure (SMILES): Cc1c(N[C@H](c2ccc(-c3nnco3)cc2)[C@@H](C)OS(N)(=O)=O)ccc(C#N)c1Cl [Example 94, (1R,2R)-1-(3-Chloro-4-cyano-2-methylphenylamino)-1-(4-(1,3,4-oxadiazol-2-yl)phenyl sulfamate)propan-2-yl sulfamate]
- IC50 (androgen receptor; [2]): > 1000 nM

Structure (SMILES): CC(=O)Oc1ccc(-c2nnc([C@H](Nc3ccc(C#N)c(Cl)c3C)[C@H](C)OC(C)=O)o2)cc1 [Example 73, 4-(5-((1R,2S)-2-Acetoxy-1-(3-chloro-4-cyano-2-methylphenylamino)propyl)-1,3,4-oxadiazol-2-yl)phenyl acetate]
- IC50 (androgen receptor): 30 nM

Structure (SMILES): CC(=O)O[C@@H](C)[C@@H](Nc1ccc(C#N)c(Cl)c1C)c1nnc(-c2ccc(C#N)cc2)o1 [Example 88, (1R,2S)-1-(3-Chloro-4-cyano-2-methylphenylamino)-1-(5-(4-cyanophenyl)-1,3,4-oxadiazol-2-yl)propan-2-yl acetate]
- IC50 (androgen receptor): 110 nM

Structure (SMILES): Cc1c(N[C@@H](c2nnc(-c3ccccc3)o2)[C@H](C)O)ccc(C#N)c1Cl [Example 1, 2-chloro-4-((1R,2S)-2-hydroxy-1-(5-phenyl-1,3,4-oxadiazol-2-yl)propylamino)-3-methylbenzonitrile]
- LABC (levator ani bulbus cavernosus), % relative to sham [1]: 85%
- Prostate, % relative to sham [1]: 46%
- Seminal vesicle, % relative to sham [1]: 69%

Structure (SMILES): [2H]c1ccc(-c2nnc([C@H](Nc3ccc(C#N)c(Cl)c3C)[C@H](C)O)o2)cc1 [Example 97, 2-Chloro-4-((1R,2S)-1-(5-(4-deuterophenyl)-1,3,4-oxadiazol-2-yl)-2-hydroxypropylamino)-3-methylbenzonitrile]
- IC50 (androgen receptor): 18 nM

Structure (SMILES): CCC(=O)O[C@@H](C)[C@@H](Nc1ccc(C#N)c(Cl)c1C)c1nnc(-c2ccc(C#N)cc2)o1 [Example 86, (1R,2S)-1-(3-Chloro-4-cyano-2-methylphenylamino)-1-(5-(4-cyanophenyl)-1,3,4-oxadiazol-2-yl)propan-2-yl propionate]
- IC50 (androgen receptor): 120 nM

Structure (SMILES): C[C@H](O)[C@@H](Nc1ccc(C#N)c2scc(Cl)c12)c1nnc(-c2ccc(C#N)cc2)o1 [Example 95, 3-Chloro-4-((1R,2S)-1-(5-(4-cyanophenyl)-1,3,4-oxadiazol-2-yl)-2-hydroxypropylamino)benzo[b]thiophene-7-carbonitrile]
- IC50 (androgen receptor): 1 nM

Structure (SMILES): Cc1c(N[C@@H](c2nnc(-c3ccc(NC(=O)c4ccccc4)cc3)o2)[C@H](C)O)ccc(C#N)c1Cl [Example 77, N-(4-(5-((1R,2S)-1-(3-Chloro-4-cyano-2-methylphenylamino)-2-hydroxypropyl)-1,3,4-oxadiazol-2-yl)phenyl)benzamide]
- IC50 (androgen receptor; [2]): 1000 nM

Structure (SMILES): C[C@H](O)[C@@H](Nc1ccc(C#N)c(Cl)c1)c1nnc(-c2ccc(S(C)(=O)=O)cc2)o1 [Example 48, 2-Chloro-4-((1R,2S)-2-hydroxy-1-(5-(4-(methylsulfonyl)phenyl)-1,3,4-oxadiazol-2-yl)propylamino)benzonitrile]
- IC50 (androgen receptor; [2]): > 1000 nM

Structure (SMILES): CCC(=O)O[C@@H](C)[C@@H](Nc1ccc(C#N)c(Cl)c1C)c1nnc(-c2ccccc2)o1 [Example 84, (1R,2S)-1-(3-Chloro-4-cyano-2-methylphenylamino)-1-(5-phenyl-1,3,4-oxadiazol-2-yl)propan-2-yl propionate]
- IC50 (androgen receptor): 25 nM
